Calls of active or inactive are those of the source. No cut-off for these calls is given here.
Tests used:
[1] = Stability of compound in PBS buffer at pH 7.4 at 100 uM incubated for 72 hrs under dark condition in presence of cysteine by Reverse-phase HPLC analysis; assay type: physicochemical; conditions: read-out: Stability
[2] = Photorelease ability in PBS buffer at pH 7.4 assessed as retention time of compound decomposition at 100 uM irradiated with >= 365 nm Hg lamp for 30 mins by RP-HPLC analysis; assay type: physicochemical; conditions: pH 7.4, 0.5 h
[3] = Photorelease ability in PBS buffer at pH 7.4 assessed as retention time of 4-(6-(2,2-dihydroxyacetyl)-9-ethyl-9H-carbazol-3-yl)-1,3-dioxol-2-one formation at 100 uM irradiated with >= 365 nm Hg lamp for 30 mins by RP-HPLC analysis; assay type: physicochemical; conditions: pH 7.4, 0.5 h
[4] = Photorelease ability in PBS buffer at pH 7.4 assessed as retention time of 1,1'-(9-ethyl-9H-carbazole-3,6-diyl)bis(2,2-dihydroxyethanone) formation at 100 uM irradiated with >= 365 nm Hg lamp for 30 mins by RP-HPLC analysis; assay type: physicochemical; conditions: pH 7.4, 0.5 h
[5] = Photorelease activity in PBS buffer at pH 7.4 assessed as release of CO using 3',6'-Bis(allyloxy)-3H-spiro(isobenzofuran-1,9'-xanthen)-3-one fluorescent probe by measuring red shift absorption spectra at 500 uM irradiated with >= 365 nm Hg lamp in presence of PdCl2 by absorption spectroscopy; assay type: physicochemical; conditions: pH 7.4, 500 µM, TDE = time-dependent effect
[6] = Photorelease activity in PBS buffer at pH 7.4 assessed as release of CO using 3',6'-Bis(allyloxy)-3H-spiro(isobenzofuran-1,9'-xanthen)-3-one fluorescent probe by measuring increase in fluorescence intensity irradiated with >= 365 nm Hg lamp at 500 uM in presence of PdCl2 by fluorescence spectroscopy; assay type: physicochemical; conditions: pH 7.4, 500 µM, TDE = time-dependent effect
[7] = Photorelease activity in PBS buffer at pH 7.4 assessed as release of CO at 500 uM irradiated with pulsed laser at 730 nm for 30 mins by absorption spectroscopy; assay type: physicochemical; conditions: pH 7.4, 0.5 h
[8] = Photorelease activity in PBS buffer at pH 7.4 assessed as MbCO formation by measuring change in absorbance intensity at 500 uM irradiated with >= 365 nm Hg lamp for 30 mins in presence of deoxy-myoglobin by absorption spectroscopy; assay type: physicochemical; conditions: pH 7.4, 0.5 h
[9] = Photorelease activity in PBS buffer at pH 7.4 assessed as 1,1'-(9-ethyl-9H-carbazole-3,6-diyl)bis(2,2-dihydroxyethanone) photoproduct formation by measuring lambda 485 nm green emission band excited at wavelength of 350 nm for 30 mins by fluorescence spectroscopy; assay type: physicochemical; conditions: pH 7.4, 0.5 h
[10] = Drug uptake in mouse B16-F10 cells assessed as drug internalization by measuring blue fluorescence at 20 uM incubated for 4 hrs followed by propidium iodide staining based confocal laser scanning microscopy; assay type: ADME, cell-based; conditions: b16-f10, 4 h
B16-F10 [11] = assay: Cytotoxicity against mouse B16-F10 cells assessed as cell viability at 1.25 to 10 uM irradiated with >= 365 nm Hg lamp for 5 mins after 6 hrs post-treatment and further incubated for 72 hrs by MTT assay; assay type: functional; conditions: dose 1.25-10 µM, time 78 hrs
HEK293 [12] = assay: Induction of apoptosis in HEK293 cells assessed as viable cells at 5 uM incubated for 24 hrs by annexin-V-FITC and PI staining based flow cytometry analysis (reference value: 99.9 %); assay type: functional; conditions: Homo sapiens, read-out: Activity
HEK293 [13] = assay: Induction of apoptosis in HEK293 cells assessed as early apoptotic cells at 5 uM incubated for 24 hrs by annexin-V-FITC and PI staining based flow cytometry analysis (reference value: 0.1 %); assay type: functional, Homo sapiens
HEK293 [14] = assay: Induction of apoptosis in HEK293 cells assessed as early apoptotic cells at 5 uM with light irradiation incubated for 24 hrs by annexin-V-FITC and PI staining based flow cytometry analysis (reference value: 0.1 %); assay type: functional, Homo sapiens
HEK293 [15] = assay: Induction of apoptosis in HEK293 cells assessed as late apoptotic cells at 5 uM with light irradiation incubated for 24 hrs by annexin-V-FITC and PI staining based flow cytometry analysis (reference value: 0 %); assay type: functional, Homo sapiens
B16-F10 [16] = assay: Induction of apoptosis in mouse B16-F10 cells assessed as viable cells at 5 uM with light irradiation incubated for 24 hrs by annexin-V-FITC and PI staining based flow cytometry analysis (reference value: 99.9 %); assay type: functional; conditions: B16-F10, light or radiation study, read-out: Activity
B16-F10 [17] = assay: Induction of apoptosis in mouse B16-F10 cells assessed as early apoptotic cells at 5 uM with light irradiation incubated for 24 hrs by annexin-V-FITC and PI staining based flow cytometry analysis (reference value: 0 %); assay type: functional
B16-F10 [18] = assay: Induction of apoptosis in mouse B16-F10 cells assessed as late apoptotic cells at 5 uM with light irradiation incubated for 24 hrs by annexin-V-FITC and PI staining based flow cytometry analysis (reference value: 0.1 %); assay type: functional
B16-F10 [19] = assay: Biodistribution in tumor site of C57BL/6 mouse model harboring mouse B16-F10 cells at 0.4 mg/kg, iv irradiated with >= 365 nm Hg lamp for 10 mins measured after 24 hrs post-administration by fluorescence based assay; assay type: ADME, organism-based; conditions: in vivo, 24.17 h, time 1450 min
[20] = Biodistribution in heart of C57BL/6 mouse model harboring mouse B16-F10 cells at 0.4 mg/kg, iv irradiated with >= 365 nm Hg lamp for 10 mins measured after 24 hrs post-administration by fluorescence based assay; assay type: ADME, organism-based; conditions: in vivo, 24.17 h, time 1450 min
[21] = Biodistribution in liver of C57BL/6 mouse model harboring mouse B16-F10 cells at 0.4 mg/kg, iv irradiated with >= 365 nm Hg lamp for 10 mins measured after 24 hrs post-administration by fluorescence based assay; assay type: ADME, organism-based; conditions: in vivo, 24.17 h, time 1450 min
[22] = Biodistribution in spleen of C57BL/6 mouse model harboring mouse B16-F10 cells at 0.4 mg/kg, iv irradiated with >= 365 nm Hg lamp for 10 mins measured after 24 hrs post-administration by fluorescence based assay; assay type: ADME, organism-based; conditions: in vivo, 24.17 h, time 1450 min
B16-F10 [23] = assay: Antitumor activity against mouse B16-F10 cells bearing C57BL/6J mouse assessed as tumor regression at 0.4 mg/kg, iv administered alternate days for 24 days followed by irradiation with pulsed laser at 730 nm for 10 mins after 24 hrs each post-injection and measured on day 25 by slide caliper method; assay type: functional, organism-based; conditions: time 25.0 day
[24] = Toxicity in C57BL/6J mouse model harboring mouse B16-F10 cells assessed as liver tissue necrosis at 0.4 mg/kg, iv administered alternate days for 24 days followed by irradiation with pulsed laser at 730 nm for 10 mins after 24 hrs each post-injection by hematoxylin and eosin staining based assay; assay type: organism-based; conditions: in vivo, 600 h, 0.73 µM, time 25 day
[25] = Toxicity in C57BL/6J mouse model harboring mouse B16-F10 cells assessed as lung tissue necrosis at 0.4 mg/kg, iv administered alternate days for 24 days followed by irradiation with pulsed laser at 730 nm for 10 mins after 24 hrs each post-injection by hematoxylin and eosin staining based assay; assay type: organism-based; conditions: in vivo, 600 h, 0.73 µM, time 25 day
[26] = Photolysis of compound in PBS buffer at pH 7.4 assessed as compound decomposition by measuring final photoproduct formation at 0.1 mM irradiated with >= 365 nm for 30 mins by RP-HPLC analysis; assay type: physicochemical; conditions: pH 7.4, 0.5 h, 100 µM

CCn1c2ccc(-c3coc(=O)o3)cc2c2cc(-c3coc(=O)o3)ccc21
remaining at 72 h, 100 µM [1]: 92%
Retention_time [2]: 6.21 min
Retention_time [3]: 8.05 min
Retention_time [4]: 8.82 min
Drug metabolism [5]: Tde
Drug metabolism [6]: Tde
Drug metabolism [7]: 4.5 ppm
Drug metabolism [8]: Active
Drug metabolism [9]: Active
Drug uptake [10]: Active
Activity (B16-F10 [11]): 20%
viability at 5 µM (HEK293 [12]): 98.9%
Activity (HEK293 [13]): 0.9%
Activity (HEK293 [14]): 46.3%
Activity (HEK293 [15]): 7.3%
viability at 5 µM (B16-F10 [16]): 51.4%
Activity (B16-F10 [17]): 32.8%
Activity (B16-F10 [18]): 15.4%
Drug uptake (B16-F10 [19]): Active
Drug uptake [20]: Active
Drug uptake [21]: Active
Drug uptake [22]: Active
Activity (B16-F10 [23]): Active
Activity [24]: Non-Toxic
Activity [25]: Non-Toxic
Drug degradation [26]: 89%
